Laboratory results published in article PMC7281506, “Bengamide Analogues Show A Potent Antitumor Activity against Colon Cancer Cells: A Preliminary Study” (Marine Drugs, 2020).
Where two headings read alike, the source gives them in different places.

Columns and labels:
[1] = system: CCD18 normal colon fibroblast cell line; assay: Proliferation assay (Sulforhodamine B), CCD18; assay type: cell-based; details: Homo sapiens, CCD18, 72 h treatment, mean ± SD of triplicate samples
Description: (§1) The T84, SW480, HCT15, HT29 and MC38 colon cancer cell lines were selected to assay the bengamide effect. A normal colon fibroblast cell line (CCD18) was included in the analysis. In addition, a cell line of another tumor type (breast cancer) was studied (MCF7). All cell lines were grown in Dulbecco’s modified Eagle’s medium (DMEM) supplemented with fetal bovine serum (10%) and a mix of penicillin-streptomycin (1%) (Sigma-Aldrich, Madrid, Spain). Cell lines were maintained at 37 °C and 5% CO2 in a humidified incubator.
(§2) The different cell lines were seeded in 48-well plates at a cell density of 3 × 10^3 cells/well for MC38, 5 × 10^3 cells/well for T84, SW480, HCT15 and CCD18, 15 × 10^3 cells/well for HT29 and 4 × 10^3 cells/well for MCF7. After attaching to the well, the treatments, Ben I and Ben V (analogues 5 and 10, respectively), were added in a wide range of doses determined by the cell line from an initial stock of 0.3 mg/mL for Ben I and 6.9 mg/mL for Ben V, both dissolved in water. The treatments were maintained for 72 h. Elapsed this time, the cells were fixed with trichloroacetic acid at 10%, stained with Sulforhodamine B (Sigma-Aldrich, Madrid, Spain) and the dye was lifted with Trizma® (Sigma-Aldrich, Madrid, Spain) at 10% following a previously established protocol. Doxorubicin and 5-Fluorouracil were used as reference compounds in breast and colon cell lines, respectively.

[2] = system: T84 colon cancer cell line; assay: Proliferation assay (Sulforhodamine B), T84; assay type: cell-based; details: Homo sapiens; T84, 72 h treatment, mean ± SD of triplicate samples
Description: as §1, §2

[3] = system: SW480 colon cancer cell line; assay: Proliferation assay (Sulforhodamine B), SW480; assay type: cell-based; details: Homo sapiens; SW480, 72 h treatment, mean ± SD of triplicate samples
Description: as §1, §2

[4] = system: HCT15 resistant colon cancer cell line; assay: Proliferation assay (Sulforhodamine B), HCT15; assay type: cell-based; details: Homo sapiens, HCT-15; HCT15, 72 h treatment, mean ± SD of triplicate samples
Description: as §1, §2

[5] = system: HT29 colon cancer cell line; assay: Proliferation assay (Sulforhodamine B), HT29; assay type: cell-based; details: Homo sapiens, HT-29; HT29, 72 h treatment, mean ± SD of triplicate samples
Description: as §1, §2

[6] = system: MC38 mouse colon cancer cell line; assay: Proliferation assay (Sulforhodamine B), MC38; assay type: cell-based; details: MC-38, MC38, 72 h treatment, mean ± SD of triplicate samples
Description: as §1, §2

[7] = system: MDA-MB-435 human breast cancer cells; details: cited from earlier work
[8] = system: cancer cell line A549; design: method as in PMID 26514647; details: A549, Figure 1; read-out: IC50 (cytotoxicity); cited from earlier work
[9] = system: MCF7 breast cancer cell line; assay: Proliferation assay (Sulforhodamine B), MCF7; assay type: cell-based; details: Homo sapiens; MCF7, 72 h treatment, mean ± SD of triplicate samples
Description: as §1, §2

[10] = Hemolysis test using human erythrocytes; assay type: cell-based; details: human erythrocytes isolated from blood of healthy donors, 1 h at 37 °C, highest doses (range 0.01–40 µM), read-out: level of hemolysis
Description: (§3) To evaluate the effect of Ben I and Ben V compounds on blood cells, a hemolysis test using human erythrocytes and a toxicity test using WBC were carried out. Different blood cells (erythrocytes and WBC) were isolated from blood samples taken from healthy donors and exposed to a wide range of doses of both Ben I and Ben V compounds (0.01–40 µM) following our previously described protocol. Briefly, the erythrocytes were diluted 50 times their initial concentration in PBS, seeded in conical bottom 96-well plates and treated with the different treatments for 1 h at 37 °C under stirring. Following this, the plate was centrifuged, 100 µL of the supernatant was transferred to a new 96-well flat-bottom plate and the absorbance at 492 nm was determined. Erythrocytes treated with Triton X-100 to 20% were used as a positive control and as a negative control, erythrocytes treated with PBS were used. In the case of erythrocytes, the percentage of hemolysis (%HR) was calculated with the following formula: %HR=Abs(sample)−Abs(−control)/Abs(+control)−Abs(−control)×100.

[11] = system: human erythrocytes; assay: Hemolysis test using human erythrocytes; assay type: cell-based; details: light microscopy after treatment
Description: as §3

[12] = Toxicity test in white blood cells (CCK-8); assay type: cell-based; details: human; WBC, 1 and 12 h of exposure, all doses tested (0.01–40 µM)
Description: as §3, with “Erythrocytes treated with Triton X-100 to 20% were used as a positive control and as a negative control, erythrocytes treated with PBS were used.” left out
As for the WBCs, they were seeded in flat-bottom 96-well plates in RPMI-1640 medium supplemented with FBS (10%) and a mixture of antibiotic (1%) at a density of 2 × 10^4 cells/well. […] The CCK-8 reagent was added to each well and after 3 h of incubation the absorbance was measured at 450 and 620 nm to determine the viability according to the manufacturer.

[13] = system: T84 cells; assay: Cell cycle assay (PI, flow cytometry), T84; assay type: cell-based, human; details: T84, 48 h; for G2/M phase change vs control: IC25 and IC50
Description: (§4) To assess the effect of treatments in the cell cycle, a cancer cell line (T84) and a normal cell line (CCD18) were seeded in 6-well plates at a density of 1.5 × 10^5 and 1 × 10^5 cells/well, respectively. […] In addition, untreated cells were used as a negative control and cells treated with 5-FU at its IC50 at 48 h as a positive control. After this time, the culture medium of each treatment was collected in a clean cytometry tube, the wells were washed with PBS at 4 °C and this wash was added to the previous tube. The cells were detached with a trypsin-EDTA mixture and also added to the tube. Next, the tubes were centrifuged at 3500 rpm for 3 min, the supernatant was discarded, and the pellet was resuspended in 100 µL of PBS. After this, 900 µL of 70% cold EtOH was added to each tube while the tubes were vortexed, then the tubes were placed on ice and incubated at 4 °C for 10 min. After this time, two washes were carried out with PBS to remove ethanol and the pellets were resuspended in 250 µL of PBS, to which 250 µL of DNA extraction solution was added (192 mL of 0.2 M Na2HPO4 + 8 mL of 0.1 M citric acid, pH = 7.8). The samples were incubated at 37 °C for 10 min, centrifuged and the supernatant discarded. Finally, 250 µL of propidium iodide (PI)/RNAse (ImmunoStep, Salamanca, Spain) solution was added and the samples were incubated for 10 min at 37 °C in the dark. Thereafter, the samples were analyzed by FAC Scan on a Becton Dickinson analyzer cytometer (Becton Dickinson, Franklin Lakes, NJ, USA).

[14] = system: CCD18 normal colon cells; assay: Cell cycle assay (PI, flow cytometry), CCD18; assay type: cell-based, human; details: CCD18, 48 h; for SubG1 and S phase change vs control: doses of IC50
Description: as §4

[15] = clinical candidate; cited from earlier work
[16] = read-out: IC50 (cytotoxicity), MDA-MB-435, Figure 1

O=c1[nH]cc(F)c(=O)[nH]1 [5-fluorouracil, reference compound]
IC50 [1]: 7350 ± 410 nM | IC50 [2]: 2680 ± 160 nM | IC50 [3]: 6350 ± 540 nM | IC50 [4]: 6580 ± 350 nM | IC50 [5]: 6140 ± 940 nM | IC50 [6]: 330 ± 10 nM

CO[C@@H](C(=O)N[C@H]1CCCCN(CCOC(=O)C2CCCCC2)C1=O)[C@H](O)[C@@H](O)[C@H](O)/C=C/C(C)(C)C [Ben III]
IC50 [7, 16]: 17 nM

CO[C@@H](C(=O)N[C@H]1CCCCNC1=O)[C@H](O)[C@@H](O)[C@H](O)/C=C/C1CCCC1 [Ben II]
IC50 [7, 16]: 440 nM

CO[C@@H](C(=O)N[C@H]1CCc2ccccc2NC1=O)[C@H](O)[C@@H](O)[C@H](O)/C=C/C(C)(C)C [Ben IV]
IC50 [8]: 9 nM

CO[C@@H](C(=O)N[C@H]1CCCCNC1=O)[C@H](O)[C@@H](O)[C@H](O)/C=C/C(C)(C)C [Ben I]
IC50 [1]: 4700 ± 280 nM | IC50 [2]: 360 ± 30 nM | IC50 [3]: 590 ± 70 nM | IC50 [4]: 1900 ± 150 nM | IC50 [5]: 1020 ± 190 nM | IC50 [6]: 1600 ± 130 nM | IC50 [9]: 490 ± 50 nM | hemolysis at 1 h [10]: ~2% | erythrocytes agglutination or modification of morphology [11]: none of these compounds caused erythrocytes agglutination or modification of their morphology | viability [12]: ~100% | SubG1 phase change vs control [13]: No differences were observed with the control | G2/M phase change vs control [13]: statistically significant (p < 0.05) G2/M phase increase | G2/M phase change vs control [14]: slight increase | SubG1 and S phase change vs control [14]: marked increase | IC50 [7, 16]: 630 nM

CO[C@@H](C(=O)N[C@@H](C)C(=O)NCCCOC(=O)C1CCCCC1)[C@H](O)[C@@H](O)[C@H](O)/C=C/C(C)(C)C [Ben V]
IC50 [1]: 5080 ± 390 nM | IC50 [2]: 70 ± 20 nM | IC50 [3]: 80 nM | IC50 [4]: 2440 ± 250 nM | IC50 [5]: 660 ± 180 nM | IC50 [6]: 6510 ± 1120 nM | IC50 [9]: 130 ± 10 nM | hemolysis at 1 h [10]: ~2% | erythrocytes agglutination or modification of morphology [11]: none of these compounds caused erythrocytes agglutination or modification of their morphology | viability [12]: ~100% | G0/G1 and S phases change vs control [13]: slight reduction | SubG1 phase change vs control [13]: No differences were observed with the control | G2/M phase change vs control [13]: this increase was much greater | G2/M phase change vs control [14]: slight increase | SubG1 and S phase change vs control [14]: marked increase | IC50 ([7]; MDA-MB-435 human breast cancer cells): 4 nM

CCCCCCCCCCCCCC(=O)O[C@H]1CC[C@H](NC(=O)[C@H](OC)[C@H](O)[C@@H](O)[C@H](O)/C=C/C(C)C)C(=O)NC1 [Bengamide A, bengamide A]
IC50 [7, 16]: 1 nM

CCCCCCCCCCCCCC(=O)O[C@H]1CC[C@H](NC(=O)[C@H](OC)[C@H](O)[C@@H](O)[C@H](O)/C=C/C(C)C)C(=O)N(C)C1 [Bengamide B]
IC50 [7, 16]: 2.4 nM

CO[C@@H](C(=O)N[C@H]1CCCCNC1=O)[C@H](O)[C@@H](O)[C@H](O)/C=C/C(C)C [Bengamide E]
IC50 [7, 16]: 3300 nM

CO[C@@H](C(=O)N[C@H]1CC[C@@H](OC(=O)C2CCCCC2)CNC1=O)[C@H](O)[C@@H](O)[C@H](O)/C=C/C(C)(C)C [LAF389]
IC50 [7, 16]: 40 nM | pharmacokinetic properties [15]: poor pharmacokinetic properties

COc1cccc2c1C(=O)c1c(O)c3c(c(O)c1C2=O)C[C@@](O)(C(=O)CO)C[C@@H]3O[C@H]1C[C@H](N)[C@H](O)[C@H](C)O1 [doxorubicin, reference compound]
IC50 [9]: 40 ± 10 nM

Bengamide F
IC50 [7, 16]: 2900 nM
